Results on four compounds are retold here after publication PMC11743353 (Pharmacological Reports, 2024).

Where two headings read alike, the source gives them in different places.

Broadly, the IC50 is the point on the concentration scale where inhibition reaches its midpoint. Broadly, the EC50 is the concentration that produces a half-maximal response.

In series [1] the target is T1, MMP-1 (Homo sapiens, UniProt P03956).
T1 construct: purchased Merck Millipore 444208
T1 sequence (P03956 100-469): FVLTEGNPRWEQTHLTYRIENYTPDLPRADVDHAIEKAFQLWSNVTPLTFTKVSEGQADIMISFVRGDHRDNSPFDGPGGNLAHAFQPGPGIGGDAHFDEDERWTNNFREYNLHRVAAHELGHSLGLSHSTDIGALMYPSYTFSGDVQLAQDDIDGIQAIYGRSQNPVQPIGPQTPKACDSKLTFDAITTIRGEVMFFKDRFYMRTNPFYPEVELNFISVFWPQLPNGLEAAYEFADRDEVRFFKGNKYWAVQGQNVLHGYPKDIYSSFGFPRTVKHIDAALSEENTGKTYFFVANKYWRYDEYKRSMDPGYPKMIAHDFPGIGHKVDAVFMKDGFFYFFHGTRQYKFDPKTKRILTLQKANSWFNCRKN
Conditions: isolated enzyme, fluorometric assay; cited from earlier work.

Series [2] in a line: MTT assay for cell viability. It counts as cell-based. To be noted: human, Calu-3 cells, read-out: CC50 (cytotoxic concentration 50%). A general note: Tetrazolium assays rely on reduction of a dye to a coloured formazan, in cell work by metabolically active cells.
The subject of another series is CD16 shedding. The arrangement: method as in PMID 28192188. Conditions: 30 µM; PBMC co-cultured with hepatitis C virus-infected HuH7.5 cells; cited from earlier work.
The subject of another series is sALCAM release. The arrangement: method as in PMID 24044434. Conditions: ovarian cancer cell lines; cited from earlier work.
The test system of series [3] is SARS-CoV-2. The class given is cell-based.
For series [4], the system named is SARS-CoV-2. The class given is cell-based. The source holds these as a separate data set.
For series [5], the system named is SARS-CoV-2. The series can be described thus: Plaques analysis (plaque dimension on Vero E6 cells). To be noted: Vero E6 cells infected with supernatants of treated Calu-3 cells; mean diameter of 10 plaques.
Description: In order to assess the levels of infective SARS-CoV-2 released by treated or untreated cells, a plaque assay was performed. Vero E6 were seeded in 12-well plates and infected with serial dilution (10-fold) of the supernatants derived from treated and infected Calu-3 cells. Plaques were visible five days after infection, then cells were methanol-fixed, stained with crystal violet (0.1%) and plaques were manually counted [26] (microscope NeXcope NE620). The experiments were run in triplicate.
After crystal violet (0.1%) staining for antiviral activity assessment, plaques forming unit were identified and measured in size. Dimension of plaques derived by cytopathic effect of SARS-CoV-2 in Vero E6 cells was evaluated by microscopy (NeXcope NE620). For each well, 5 different fields were manually selected, and at least 10 plaques for each condition were identified and measured using NeXcope visualization software (Capture V.2.0) and reported as mean diameter (mm) ± SD.
For series [6], the system named is SARS-CoV-2. The series can be described thus: microbe, parasite or virus in culture. The class given is cell-based. Conditions: for EC50: Severe acute respiratory syndrome coronavirus 2, Calu-3.
Series [7] deals with ACE2 expression on Calu-3 cell surface. The series can be described thus: ACE2 immunofluorescence assay on Calu-3 cell surface. To be noted: Calu-3 cells; for ACE2 expression on cell membranes (immunofluorescence): 25 µM, 24 h and 48 h, compared to untreated. The class given is cell-based, human. How it is done: Calu-3 cells were incubated with a specific antibody against human angiotensin-converting enzyme 2 (ACE2) (SN0754 Thermo Fisher; Italy) as previously reported, followed by incubation with the FITC goat antirabbit IgG (H + L) secondary antibody (Thermo Fisher, Milan, Italy). Immunofluorescence was observed by fluorescence microscopy (Nikon Eclipse TE2000S, Milan, Italy). DNA was stained using DAPI (Thermo Fisher, Milan, Italy) to identify cell nuclei and reported as relative fluorescence units (RFU) compared to untreated control sample, by immunofluorescence quantification derived by the analysis of 5 different images derived by biological replicates, using Qupath software. In Brief, for each condition, the percentage of ACE2-positive stained cells was obtained considering the total DAPI-stained nuclei as 100% and then normalized on untreated control sample result and reported as fold difference value.
Considering the role of ACE2 receptor in viral entry into host cells, and the ability of ADAM17 to shed it from cell surface, we analyzed ACE2 expression on Calu-3 cell surface by immunofluorescence after 24 and 48 h of treatment with the three compounds, at the concentration of 25 µM (Fig. 4 and supplementary Figure S1).

In a further series the target is T2, MMP-9 (Homo sapiens, UniProt P14780).
T2 construct: purchased Merck Millipore PF038
T2 sequence (P14780 107-707 limits assumed): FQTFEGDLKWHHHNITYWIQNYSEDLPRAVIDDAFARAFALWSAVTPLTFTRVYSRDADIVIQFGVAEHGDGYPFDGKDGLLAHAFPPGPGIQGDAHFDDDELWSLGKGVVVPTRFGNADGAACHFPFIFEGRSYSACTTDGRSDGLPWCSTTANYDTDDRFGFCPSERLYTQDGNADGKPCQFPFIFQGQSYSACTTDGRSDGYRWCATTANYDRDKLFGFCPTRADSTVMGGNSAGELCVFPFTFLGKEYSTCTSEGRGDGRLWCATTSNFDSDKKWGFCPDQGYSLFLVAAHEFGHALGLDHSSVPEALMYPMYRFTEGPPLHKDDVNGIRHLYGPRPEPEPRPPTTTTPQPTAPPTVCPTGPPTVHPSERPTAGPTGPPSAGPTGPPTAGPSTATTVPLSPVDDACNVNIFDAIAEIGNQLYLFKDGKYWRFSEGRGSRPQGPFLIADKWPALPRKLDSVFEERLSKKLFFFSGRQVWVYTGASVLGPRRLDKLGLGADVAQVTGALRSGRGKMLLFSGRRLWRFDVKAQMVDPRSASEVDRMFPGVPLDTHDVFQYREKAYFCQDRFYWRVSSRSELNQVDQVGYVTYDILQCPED
The series can be described thus: Fluorometric enzyme inhibition assay, MMP-9. The class given is biochemical. To be noted: isolated enzyme.

Series [8] has as its target T3, Recombinant human MMP-14 catalytic domain (Homo sapiens, UniProt P50281).
T3 construct: Recombinant human MMP-14 catalytic domain was a kind gift of Prof; Gillian Murphy; gift of Prof; Gillian Murphy (Department of Oncology, University of Cambridge, UK)
The series can be described thus: Fluorometric enzyme inhibition assay, MMP-14. The class given is biochemical. To be noted: isolated enzyme.

Series [9] concerns the target T1, MMP-1. The series can be described thus: Fluorometric enzyme inhibition assay, MMP-1. The class given is biochemical. Conditions: isolated enzyme.
A further series deals with T4, MMP-2 (Homo sapiens, UniProt P08253).
T4 construct: purchased Merck Millipore PF037
T4 sequence (P08253 110-660): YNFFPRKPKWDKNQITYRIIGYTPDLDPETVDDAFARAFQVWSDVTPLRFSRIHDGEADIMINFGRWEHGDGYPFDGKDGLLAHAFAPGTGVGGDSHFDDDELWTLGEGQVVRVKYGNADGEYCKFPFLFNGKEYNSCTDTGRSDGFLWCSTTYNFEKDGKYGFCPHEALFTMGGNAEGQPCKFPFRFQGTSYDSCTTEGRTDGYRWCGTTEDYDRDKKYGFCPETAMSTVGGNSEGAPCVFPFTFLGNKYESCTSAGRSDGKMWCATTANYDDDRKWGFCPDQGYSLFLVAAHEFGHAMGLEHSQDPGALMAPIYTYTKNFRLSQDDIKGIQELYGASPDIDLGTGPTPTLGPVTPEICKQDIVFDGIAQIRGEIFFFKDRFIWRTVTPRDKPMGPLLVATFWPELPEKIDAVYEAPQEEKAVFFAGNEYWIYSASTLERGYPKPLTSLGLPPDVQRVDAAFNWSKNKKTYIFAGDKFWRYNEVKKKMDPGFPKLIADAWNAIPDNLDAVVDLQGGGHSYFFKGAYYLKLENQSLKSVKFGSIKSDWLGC
The series can be described thus: Fluorometric enzyme inhibition assay, MMP-2. Conditions: isolated enzyme. It counts as biochemical.

The target in another series is T5, recombinant human ADAM17 (Homo sapiens, UniProt P78536).
T5 construct: purchased Merck Millipore PF133
T5 sequence (P78536 215-824): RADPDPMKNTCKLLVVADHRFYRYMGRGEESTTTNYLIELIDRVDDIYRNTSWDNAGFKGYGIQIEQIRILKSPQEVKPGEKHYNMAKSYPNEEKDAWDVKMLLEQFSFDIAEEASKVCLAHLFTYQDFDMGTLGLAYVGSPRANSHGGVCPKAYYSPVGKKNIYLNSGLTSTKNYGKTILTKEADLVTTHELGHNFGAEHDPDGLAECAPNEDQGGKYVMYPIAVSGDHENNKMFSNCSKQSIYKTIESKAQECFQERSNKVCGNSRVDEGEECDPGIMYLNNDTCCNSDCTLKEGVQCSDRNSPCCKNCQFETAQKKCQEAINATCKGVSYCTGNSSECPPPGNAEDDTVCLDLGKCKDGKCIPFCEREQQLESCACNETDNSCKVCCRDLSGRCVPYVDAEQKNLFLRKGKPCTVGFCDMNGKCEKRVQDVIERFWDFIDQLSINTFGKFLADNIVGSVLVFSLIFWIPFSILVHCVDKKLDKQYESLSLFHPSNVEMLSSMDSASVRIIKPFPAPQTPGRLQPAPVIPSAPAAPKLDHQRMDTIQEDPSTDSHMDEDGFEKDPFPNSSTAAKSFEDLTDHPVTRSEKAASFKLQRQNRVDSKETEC
The series can be described thus: Fluorometric enzyme inhibition assay, ADAM17. The class given is biochemical. Conditions: isolated enzyme.

In the next series the target is T6, Recombinant human ADAM10 (Homo sapiens, UniProt O14672).
T6 construct: purchased R&D Systems 936-AD
T6 sequence (O14672 214-748): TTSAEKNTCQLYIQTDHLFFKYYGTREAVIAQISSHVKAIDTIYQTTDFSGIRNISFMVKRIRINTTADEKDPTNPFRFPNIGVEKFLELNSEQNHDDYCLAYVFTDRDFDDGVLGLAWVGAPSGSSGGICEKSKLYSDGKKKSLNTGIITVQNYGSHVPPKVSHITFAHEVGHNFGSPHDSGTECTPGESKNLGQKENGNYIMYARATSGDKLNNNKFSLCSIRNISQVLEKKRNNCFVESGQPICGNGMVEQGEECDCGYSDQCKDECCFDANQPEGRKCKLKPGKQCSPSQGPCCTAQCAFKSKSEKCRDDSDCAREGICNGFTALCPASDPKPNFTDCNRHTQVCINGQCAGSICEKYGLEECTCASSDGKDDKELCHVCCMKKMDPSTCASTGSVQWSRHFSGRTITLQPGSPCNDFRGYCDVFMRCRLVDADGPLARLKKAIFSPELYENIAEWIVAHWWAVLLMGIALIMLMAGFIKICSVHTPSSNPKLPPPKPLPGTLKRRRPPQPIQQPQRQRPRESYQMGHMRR
The series can be described thus: Fluorometric enzyme inhibition assay, ADAM10. It counts as biochemical. Conditions: isolated enzyme.

The mark [10] stands for this setting: using CC50 values after 48 h of treatment.

As to `NC(=O)NCCC[C@@H](NS(=O)(=O)c1ccc(OCc2cc(Br)cc(Br)c2)cc1)C(=O)NO` [JG26], on MMP-1 [1], the concentration for half-maximal inhibition (IC50) is > 500 µM. Further, in series [2], the CC50 at 24 h was found to be 77.9 µM and the CC50 at 48 h turned out to be 107 µM. Also, the “reduction of CD16 shedding” value in the series with CD16 shedding is given as “active”. Besides, the “block of sALCAM release” value in the series with sALCAM release is reported as “able to block sALCAM release”. Besides, in the series with SARS-CoV-2 [3], the “LR vs DMSO (viral load logarithmic reduction), RT-qPCR” value was determined as 2.37. For the same compound, in the series on SARS-CoV-2 [4], the “LR vs DMSO (viral load logarithmic reduction), plaque assay” value is 1.44 and the “effect on viral infection at lower concentration” value is recorded as “did not show any effect”. Moreover, the “Plaque dimension (mm ± SD)” value in the series on SARS-CoV-2 [5] came out at 0.42± 0.2 mm. In addition, in the series on SARS-CoV-2 [6], the “SI (selectivity index, CC50/EC50)” value was determined as 13.23 and the response was half-maximal at 8.1 µM (EC50). In addition, the “ACE2 expression on cell membranes (immunofluorescence)” value in [7] is reported as “increased ACE2 expression”.
On to `CCCCCCCCCCCCCC(=O)O[C@@H]1[C@@H](C)[C@@]2(O)[C@@H](C=C(CO)C[C@]3(O)C(=O)C(C)=C[C@@H]23)[C@@H]2C(C)(C)[C@]12OC(C)=O` [PMA, Phorbol 12-myristate 13-acetate, reference compound], for which the “effect on SARS-CoV-2 infection (plaque assay and genome titration)” value in the series with SARS-CoV-2 [4] was “induced a sensible SARS-CoV-2 infection progression”. In addition, the “Plaque dimension (mm ± SD)” value in the series with SARS-CoV-2 [5] was 0.82± 0.32 mm. Further, the “ACE2 expression (immunofluorescence), ADAM17 inductor control” value in [7] (PMA control, compared to untreated samples) is on record as “slightly decreased ACE2 expression”.
With `CC(=O)N[C@@H]1[C@@H](O)[C@H](O)[C@@H](CO)O[C@H]1NC(=S)NCCOCCOCCOCCOCCC(=O)NCCC[C@@H](NS(=O)(=O)c1ccc(OCc2cc(Br)cc(Br)c2)cc1)C(=O)NO` [Compound 2, 1-(((2R, 3R, 4R, 5 S, 6R)-3-acetamido-4,5-dihydroxy-6-(hydroxymethyl)tetrahydro-2 H-pyran-2-yl)amino)-N-((R)-4-(4-((3,5-dibromobenzyl)oxy)phenylsulfonamido)-5-(hydroxyamino)-5-oxopentyl)-1-thioxo-5,8, 11, 14-tetraoxa-2-azaheptadecan-17-amide], in series [2], the CC50 at 24 h is 67.2 µM. Also, the CC50 at 48 h in series [2] was 72 µM. The half-maximal inhibitory concentration (IC50) is 1.77 µM against MMP-9; 70.7 µM in series [8]; > 200 µM against MMP-1 [9]; 0.32 µM against MMP-2; 0.0055 µM at recombinant human ADAM17; 0.81 µM at Recombinant human ADAM10. In addition, in the series on SARS-CoV-2 [5], the “Plaque dimension (mm ± SD)” value came out at 0.61± 0.23 mm. In the series with SARS-CoV-2 [6], this compound came in with a concentration for a half-maximal effect (EC50) of 13.6 µM. The “SI (selectivity index, CC50/EC50)” value with SARS-CoV-2 [6] (setting [10]) stood at 5.29.
For `O=C(NCCC[C@@H](NS(=O)(=O)c1ccc(OCc2cc(Br)cc(Br)c2)cc1)C(=O)NO)c1cccc(C(=O)NCCC[C@@H](NS(=O)(=O)c2ccc(OCc3cc(Br)cc(Br)c3)cc2)C(=O)NO)c1` [Compound 1], the IC50 on MMP-1 [1] is > 200 µM. For the same compound, in series [2], the CC50 at 24 h was 113 µM and the CC50 at 48 h was 113 µM. In addition, in the series with SARS-CoV-2 [5], the “Plaque dimension (mm ± SD)” value is on record as 0.53± 0.19 mm. This compound also yielded an EC50 with SARS-CoV-2 [6] of 12.7 µM. In the series on SARS-CoV-2 [6] (setting [10]), the “SI (selectivity index, CC50/EC50)” value was determined as 8.91. In series [7], the “ACE2 expression on cell membranes (immunofluorescence)” value is “increased ACE2 expression”.
